Source: patent US11384048B2, “Aromatic vinyl or aromatic ethyl derivative, preparation method therefor, intermediate, pharmaceutical composition, and application” (GUANGZHOU MAXINOVEL PHARMACEUTICALS CO., LTD., priority 2017, dated 2022)

Biological target: PD-1/PD-L1 (Homo sapiens (Human), UniProt Q9NZQ7)
Assay: Homogenouse Time-Resolved Fluorescence (HTRF) binding assay PD-1/PD-L1
Details: CisBio kit #64CUS000C-1
Description: Homogenouse Time-Resolved Fluorescence (HTRF) binding assay was used to determine the binding activity of the compound of the present disclosure to PD-1/PD-L1.
The purchased kit (CisBio, #64CUS000C-1) contained the reagents required for experiments such as PD-1, PD-L1, anti-tag1-Eu, Anti-tag2-XL665, Dilute Buffer and Detection Buffer.
1. The compound was formulated to 10 concentrations with a three-fold concentration gradient with 100% DMSO.
2. The solution of the compound in DMSO was added to Dilute Buffer, and mixed evenly and then transferred to a 96-well plate.
3. PD-L1 was diluted with Dilute Buffer and added to the 96-well plate above.
4. PD-1 was diluted with Dilute Buffer, then added to the 96-well plate above and incubated at room temperature for 30 minutes.
5. One portion of anti-tag1-Eu and one portion of anti-tag2-XL665 were added to Detection Buffer, mixed evenly and transferred to the 96-well plate above.
6. The mixed solution in the 96-well plate were incubated at room temperature for 1 to 24 hours.
7. HTRF values were read by Envision.

PD-1/PD-L1, sequence (Q9NZQ7 19-238): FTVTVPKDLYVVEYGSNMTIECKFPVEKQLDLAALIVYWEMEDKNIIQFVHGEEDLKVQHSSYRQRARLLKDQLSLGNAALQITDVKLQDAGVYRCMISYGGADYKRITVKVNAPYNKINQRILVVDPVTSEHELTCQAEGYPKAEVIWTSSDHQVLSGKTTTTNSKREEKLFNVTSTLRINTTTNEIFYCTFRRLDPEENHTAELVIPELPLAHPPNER

IC50 [nM]	Structure (SMILES)
> 10000	Cc1c(/C=C/c2cc(CN[C@@](C)(CO)C(=O)O)ccc2C(F)(F)F)cccc1-c1ccc2nccn2c1 [Compound 36]
1300	Cc1c(/C=C/c2cc(CN[C@@](C)(CO)C(=O)O)ccc2C(F)(F)F)cccc1-c1cn2ccnc2cn1 [Compound 37]
540	Cc1nc2ccc(-c3cccc(/C=C/c4cc(CN[C@@](C)(CO)C(=O)O)ccc4C(F)(F)F)c3C)cc2o1 [Compound 43, (S,E)-3-hydroxy-2-methyl-2-(3-(2-methyl-3-(2-methylbenzo[d]oxazol-6-yl)-styryl)-4-(trifluoromethyl)benzylamino)-3-hydroxy-2-methylpropanoic acid]
